Measured values reported in US20240376085A1 (Janssen Pharmaceutica NV, priority 2021, published 2024).

Assays:
[1] = biological target: T1, IL-17A : IL-17RA binding (Homo sapiens, UniProt Q16552, K93Q); assay: IL-17A(FLAG-tagged):IL-17RA(His-tagged) binding disruption Eu-HTRF assay, Protocol 1; conditions: FLAG-IL-17A 2.5 nM at 2x final concentration; average if tested more than once
T1 construct: Name: IL-17A-Flag
How it was run: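 IC50 came from a one-site competition fit of the acceptor/donor (665/620 nm) HTRF ratio. His-tagged IL-17RA, Eu-anti-FLAG and D2-anti-His were added after a 1 h rt compound preincubation with FLAG-tagged IL-17A dimer in PBS/0.01% Triton X-100, followed by 2 h at rt before reading.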

[2] = tested on: IL-17A-induced G-CSF production in human normal keratinocyte (NHK); assay: NHK assay: IL-17A-induced G-CSF production in normal human keratinocytes; assay type: cell-based; conditions: IL-17A 5 ng/mL, 24 h, average if tested more than once
How it was run: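 IC50 derives from G-CSF in supernatants, quantified by HTRF from a standard curve, with CellTiter-Glo viability compared to DMSO control. Before a 24 h, 37°C culture of normal human keratinocytes at 3000–4000 cells/well, compound dilutions were preincubated 1 h at rt with human IL-17A (5 ng/mL final), with 0.2% DMSO and 5% FBS.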

T1 sequence (Q16552 with tags, fused parts or gaps K93Q): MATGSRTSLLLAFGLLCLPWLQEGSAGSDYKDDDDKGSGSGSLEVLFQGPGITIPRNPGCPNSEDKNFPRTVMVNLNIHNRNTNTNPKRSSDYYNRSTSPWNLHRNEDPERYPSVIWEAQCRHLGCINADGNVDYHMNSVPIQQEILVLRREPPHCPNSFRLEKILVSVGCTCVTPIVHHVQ

Structure (SMILES)	IC50 [1]	IC50 [2]	IC50 ([2]; Homo sapiens, Keratinocyte)
CC(C)n1nccc1C(=O)N[C@H](c1nc2ccc([C@@H](C)NC(=O)CC(C)C(F)(F)F)cc2[nH]1)C1CCC(F)(F)CC1 (single isomer, unassigned) [Example 139, N—((S)-(4,4-Difluorocyclohexyl)(6-((R)-1-((S*)-4,4,4-trifluoro-3-methylbutanamido)ethyl)-1H-benzo[d]imidazol-2-yl)methyl)-1-isopropyl-1H-pyrazole-5-carboxamide]	> 100 nM	< 50 nM	
CCn1nc(C(=O)N[C@H](c2nc3cc([C@@H](C)NC(=O)CCC(F)(F)F)ccc3[nH]2)C2CCC(F)(F)CC2)cc1C(F)(F)F [Example 92, N—((S)-(4,4-Difluorocyclohexyl)(5-((R)-1-(4,4,4-trifluorobutanamido)ethyl)-1H-benzo[d]imidazol-2-yl)methyl)-1-ethyl-5-(trifluoromethyl)-1H-pyrazole-3-carboxamide]	> 100 nM		> 100 nM
CCCC(NC(=O)CCC(F)(F)F)c1ccc2[nH]c([C@@H](NC(=O)c3ccnn3C)C3CCC(F)(F)CC3)nc2c1 (single isomer, unassigned) [Example 51, N—((S)-(4,4-Difluorocyclohexyl)(5-((R*)-1-(4,4,4-trifluorobutanamido)butyl)-1H-benzo[d]imidazol-2-yl)methyl)-1-methyl-1H-pyrazole-5-carboxamide]	> 100 nM	50 to 100 nM	
Cc1nonc1C(=O)N[C@H](c1nc2cc([C@@H](NC(=O)CC3CC(F)(F)C3)C3CC3)ccc2[nH]1)C1CCC(F)(F)CC1 [Example 145, N—((S)-(5-((S)-Cyclopropyl(2-(3,3-difluorocyclobutyl)acetamido)methyl)-1H-benzo[d]imidazol-2-yl)(4,4-difluorocyclohexyl)methyl)-4-methyl-1,2,5-oxadiazole-3-carboxamide]	> 100 nM		> 100 nM
CC(C)n1nccc1C(=O)N[C@H](c1nc2ccc([C@H](NC(=O)CC3CC(F)(F)C3)C3CC3)cc2[nH]1)C1CCC(F)(F)CO1 (single isomer, unassigned) [Example 262, N—((R)-(6-((R)-Cyclopropyl(2-(3,3-difluorocyclobutyl)acetamido)methyl)-1H-benzo[d]imidazol-2-yl)((R*)-5,5-difluorotetrahydro-2H-pyran-2-yl)methyl)-1-isopropyl-1H-pyrazole-5-carboxamide]	> 100 nM	< 50 nM	
Cn1nccc1C(=O)N[C@H](c1nc2cc(C(NC(=O)CCC(F)(F)F)C3CC3)ccc2[nH]1)C1CCC(F)(F)CC1 (single isomer, unassigned) [Example 54, N—((S)-(5-((S*)-Cyclopropyl(4,4,4-trifluorobutanamido)methyl)-1H-benzo[d]imidazol-2-yl)(4,4-difluorocyclohexyl)methyl)-1-methyl-1H-pyrazole-5-carboxamide]	> 100 nM		< 50 nM
C[C@@H](NC(=O)CCC(F)(F)F)c1ccc2[nH]c([C@@H](NC(=O)c3cn(CC4CCC4)nc3C#N)C3CCC(F)(F)CC3)nc2c1 [Example 88, 3-Cyano-1-(cyclobutylmethyl)-N—((S)-(4,4-difluorocyclohexyl)(5-((R)-1-(4,4,4-trifluorobutanamido)ethyl)-1H-benzo[d]imidazol-2-yl)methyl)-1H-pyrazole-4-carboxamide]	> 100 nM		> 100 nM
C[C@@H](NC(=O)CCC(F)(F)F)c1ccc2[nH]c([C@@H](NC(=O)c3cc(CCC(F)(F)F)on3)C3CCC(F)(F)CC3)nc2c1 [Example 217, N—((S)-(4,4-Difluorocyclohexyl)(5-((R)-1-(4,4,4-trifluorobutanamido)ethyl)-1H-benzo[d]imidazol-2-yl)methyl)-5-(3,3,3-trifluoropropyl)isoxazole-3-carboxamide]	> 100 nM		> 100 nM
CC(C)(O)c1nonc1C(=O)N[C@@H](COC(C)(C)C(F)(F)F)c1nc2cc([C@H](NC(=O)CC3CC(F)(F)C3)C3CC3)ccc2[nH]1 [Example 168, N—((R)-1-(5-((R)-Cyclopropyl(2-(3,3-difluorocyclobutyl)acetamido)methyl)-1H-benzo[d]imidazol-2-yl)-2-((1,1,1-trifluoro-2-methylpropan-2-yl)oxy)ethyl)-4-(2-hydroxypropan-2-yl)-1,2,5-oxadiazole-3-carboxamide]	50 to 100 nM		> 100 nM
CC(C)c1c(C(=O)NC(CC(C)(C)C(F)(F)F)c2nc3cc([C@@H](C)NC(=O)CCC(F)(F)F)ccc3[nH]2)no[n+]1[O-] (single isomer, unassigned) [Example 56, 3-Isopropyl-4-(((S*)-4,4,4-trifluoro-3,3-dimethyl-1-(5-((R)-1-(4,4,4-trifluorobutanamido)ethyl)-1H-benzo[d]imidazol-2-yl)butyl)carbamoyl)-1,2,5-oxadiazole 2-oxide]	50 to 100 nM		50 to 100 nM
Cc1nocc1C(=O)N[C@@H](COC(C)(C)C(F)(F)F)c1nc2ccc([C@H](NC(=O)CC3CC(F)(F)C3)C3CC3)cc2[nH]1 [Example 77, N—((R)-1-(6-((R)-Cyclopropyl(2-(3,3-difluorocyclobutyl)acetamido)methyl)-1H-benzo[d]imidazol-2-yl)-2-((1,1,1-trifluoro-2-methylpropan-2-yl)oxy)ethyl)-3-methylisoxazole-4-carboxamide]	50 to 100 nM		50 to 100 nM
O=C(N[C@H](c1nc2cc([C@H](NC(=O)C(F)(F)CC3CC3)C3CC3)ccc2[nH]1)C1CCC(F)(F)CC1)c1nonc1C1CC1 [Example 147, 4-Cyclopropyl-N—((S)-(5-((R)-cyclopropyl(3-cyclopropyl-2,2-difluoropropanamido)methyl)-1H-benzo[d]imidazol-2-yl)(4,4-difluorocyclohexyl)methyl)-1,2,5-oxadiazole-3-carboxamide]	50 to 100 nM		< 50 nM
CC(C)n1nccc1C(=O)N[C@@H](CC(C)(C)C(F)F)c1nc2ccc([C@H](NC(=O)CC3CC(F)(F)C3)C3CC3)cc2[nH]1 [Example 234, N—((S)-1-(6-((R)-Cyclopropyl(2-(3,3-difluorocyclobutyl)acetamido)methyl)-1H-benzo[d]imidazol-2-yl)-4,4-difluoro-3,3-dimethylbutyl)-1-isopropyl-1H-pyrazole-5-carboxamide]	50 to 100 nM		50 to 100 nM

Now from value to compound, other results behind:

IC50 [1]	Structure (SMILES)	IC50 [2]	IC50 ([2]; Homo sapiens, Keratinocyte)
> 100 nM	CC(C)n1ncnc1C(=O)N[C@H](c1nc2cc([C@@H](C)NC(=O)CCC(F)(F)F)ccc2[nH]1)C1CCC(F)(F)CC1 [Example 199, N—((S)-(4,4-Difluorocyclohexyl)(5-((R)-1-(4,4,4-trifluorobutanamido)ethyl)-1H-benzo[d]imidazol-2-yl)methyl)-1-isopropyl-1H-1,2,4-triazole-5-carboxamide]		> 100 nM
> 100 nM	C[C@@H](NC(=O)CCC(F)(F)F)c1ccc2[nH]c([C@@H](NC(=O)c3cn(CC4CC(F)(F)C4(F)F)nn3)C3CCC(F)(F)CC3)nc2c1 (stereo partly drawn) [Example 84, N—((S)-(4,4-Difluorocyclohexyl)(5-((R)-1-(4,4,4-trifluorobutanamido)ethyl)-1H-benzo[d]imidazol-2-yl)methyl)-1-((2,2,3,3-tetrafluorocyclobutyl)methyl)-1H-1,2,3-triazole-4-carboxamide]		> 100 nM
> 100 nM	Cc1nonc1C(=O)N[C@H](c1nc2ccc([C@H](NC(=O)CC3CC(F)(F)C3)C3CC3)cc2[nH]1)C1CCOC(C)(C)C1 (single isomer, unassigned) [Example 173, N—((S)-(6-((R)-Cyclopropyl(2-(3,3-difluorocyclobutyl)acetamido)methyl)-1H-benzo[d]imidazol-2-yl)((S*)-2,2-dimethyltetrahydro-2H-pyran-4-yl)methyl)-4-methyl-1,2,5-oxadiazole-3-carboxamide]		> 100 nM
> 100 nM	C[C@@H](NC(=O)CCC(F)(F)F)c1ccc2[nH]c([C@@H](NC(=O)c3cnnn3CC(F)(F)F)C3CCC(F)(F)CC3)nc2c1 [Example 23, N—[(S)-(4,4-Difluorocyclohexyl)-[6-[(1R)-1-(4,4,4-trifluorobutanoylamino)ethyl]-1H-benzimidazol-2-yl]methyl]-3-(2,2,2-trifluoroethyl)triazole-4-carboxamide]		> 100 nM
> 100 nM	C[C@@H](NC(=O)CCC(F)(F)F)c1ccc2[nH]c([C@@H](NC(=O)c3cnn(C)c3CCC(F)(F)F)C3CCC(F)(F)CC3)nc2c1 [Example 6, N—[(S)-(4,4-Difluorocyclohexyl)-[6-[(1R)-1-(4,4,4-trifluorobutanoylamino)ethyl]-1H-benzimidazol-2-yl]methyl]-1-methyl-5-(3,3,3-trifluoropropyl)pyrazole-4-carboxamide]		> 100 nM
< 50 nM	CC(C)(OC[C@H](NC(=O)c1nonc1OCC(F)(F)F)c1nc2cc([C@H](NC(=O)CC3CC(F)(F)C3)C3CC3)ccc2[nH]1)C(F)(F)F [Example 267, N—((R)-1-(5-((R)-Cyclopropyl(2-(3,3-difluorocyclobutyl)acetamido)methyl)-1H-benzo[d]imidazol-2-yl)-2-((1,1,1-trifluoro-2-methylpropan-2-yl)oxy)ethyl)-4-(2,2,2-trifluoroethoxy)-1,2,5-oxadiazole-3-carboxamide]		< 50 nM
< 50 nM	Cc1nonc1C(=O)N[C@@H](CC(C)(C)C(F)(F)F)c1nc2ccc([C@H](NC(=O)CC(C)C(F)(F)F)C3CC3)cc2[nH]1 (single isomer, unassigned) [Example 179, N—((S)-1-(6-((R)-Cyclopropyl((R*)-4,4,4-trifluoro-3-methylbutanamido)methyl)-1H-benzo[d]imidazol-2-yl)-4,4,4-trifluoro-3,3-dimethylbutyl)-4-methyl-1,2,5-oxadiazole-3-carboxamide]		> 100 nM
